Common to all, as to test: microbe, parasite or virus in culture
Assay [1] has as its system Mycobacterium tuberculosis.
Assay [2] deals with Mycobacterium tuberculosis. Conditions: variant bovis BCG.
Assay [3] relates to Mycobacterium tuberculosis. The source holds these as a separate data set.
In assay [4] the test system is Mycobacterium tuberculosis. This is another data set of the same source.
Assay [5] concerns Mycobacterium tuberculosis. The source holds these as a separate data set.

From ChEMBL document CHEMBL1949614, “Advent of Imidazo[1,2-a]pyridine-3-carboxamides with Potent Multi- and Extended Drug Resistant Antituberculosis Activity” (ACS Med Chem Lett, 2011) come the findings set out here.

Values after ≈ are worked out from the molar mass of the structure shown.

As to `CO[C@H]1/C=C/O[C@@]2(C)Oc3c(C)c(O)c4c(O)c(c(/C=N/N5CCN(C)CC5)c(O)c4c3C2=O)NC(=O)/C(C)=C\C=C\[C@H](C)[C@H](O)[C@@H](C)[C@@H](O)[C@@H](C)[C@H](OC(C)=O)[C@@H]1C` [RIFAMPIN], the MIC90 is over 1 µM in assay [1] and under 0.78 µM in assay [2].
With `COc1cccc(CNC(=O)c2c(C)nc3ncc(C)cn23)c1`, the MIC90 stood at 5.84 µM (≈ 1.81 µg/mL) in assay [3]; 1.49 µM (≈ 0.462 µg/mL) in assay [1]; 2.78 µM (≈ 0.863 µg/mL) in assay [2]; 1.02 µM (≈ 0.317 µg/mL) in assay [4]; 5.84 µM (≈ 1.81 µg/mL) in assay [5].
In assay [5], `NNC(=O)c1ccncc1` [ISONIAZID] had an MIC90 of over 8 µM.
As to `Cc1ccn2c(C(=O)NCc3ccccc3)c(C)nc2c1`, the MIC90 in assay [3] is 1.02 µM (≈ 0.285 µg/mL); in assay [1], 0.28 µM (≈ 0.0782 µg/mL); in assay [2], 0.33 µM (≈ 0.0922 µg/mL); in assay [4], 1.07 µM (≈ 0.299 µg/mL).
